From patent publication US6277364A, “Polyurethanes as topical skin protectants” (Bertek Pharmaceuticals, Inc., priority 1998, dated 2001)
Values after ≈ are worked out from the molar mass of the structure shown.

How the values were obtained:
[1] = in vivo
Description: In this example, the FTIR-ATR technique was used to assess the presence and amount of polyolprepolymer-2 ("PP-2") in the stratum corneum of two human subjects, in vivo.
The test solution contained 10 wt % PP-2 dissolved in ethanol/water (60:40 v/v). the control solution consisted only of ethanol/water (60:40 v/v). Webtril™ pads (12cm×2.5cm) were saturated either with test or control solution and were applied to the left and right forearms of two subjects, respectively. The pads were secured in place with Tegaderm 1626™ occlusive transparent dressing during the entire 3 hour exposure period. The skin surface of the dosing sites was lightly wiped with two cotton-tipped swabs following the exposure period. A total of 8 tape strippings were performed: 6 were done immediately and 2 were done 2 hours later. […]
FTIR spectra of the stratum comeum was measured from the dosing site and compared with the FTIR spectra of PP-2. The ratio of PP-2 absorption at 1095 cm^-1 to stratum corneum absorption at 675 cm^-1 (R 1095/675) was determined to account for potential differences in degree of contact between the sample (forearm) and the ATR crystal. […]
The absorbance ratio, R 1095/675, of PP-2 was determined. The quantity εb was computed, based upon the known surface concentration of PP-2 and using Beer's Law (A=εbC). […]

physchem = details: water

## poly[oxy(methyl-1,2-ethanediyl)], α-hydro-ω-hydroxy-, polymer with 1,1'-methylene-bis-[4-isocyanatocyclohexane] [PP-2]
[1]
  localization in skin: localized in the stratum corneum

## O=c1[nH]cc(F)c(=O)[nH]1 [5-FU, 5-fluorouracil]
physchem
  solubility: 10.2 mg/mL (≈ 78.4 mM)
